In brackets after ≈: the same amount, converted by molar mass.
Key:
Assay type in all cases: cell-based
Pythium ultimum [1] = test: Amended agar assay (PDA), colony growth; design: key to % control Pythium ultimum 20 ppm: D: no control detected at this concentration; C: up to 50% control; B: from 50 to 99% control; A: a control of greater than 99%, i.e. no detectable colony growth; conditions: for inhibition of growth at 20 ppm / EC50: Globisporangium ultimum; for inhibition of growth at 20 ppm / % control Pythium ultimum 20 ppm: 20 ppm in amended PDA, 18° C., reduction in colony growth vs control plate; for EC50: amended agar, 5-fold dilutions
Procedure: (§1) Testing was carried out on potato dextrose agar (PDA) amended with each compound at a test concentration of 20 ppm. Amended agar was poured into three replicate 9 cm petri dishes. Each replicate dish was inoculated in the centre with a 5 mm agar plug taken from the leading edge of a culture aged between 2 and 7 days old; the age of the culture was dependant on the growth rate of the pathogen being tested. The test pathogens were Pythium ultimum and Phytophthora cinnamomi. Plates were incubated at 18° C. and the diameter of each colony measured before growth on the fastest growing plate reached the plate edge. This varied between 2 and 7 days depending on the growth rate of test pathogens. The % reduction in colony growth compared to the control plate was calculated for each pathogen. The results are provided in Table 1, in which D represents no control detected at this concentration; C represents up to 50% control; B from 50 to 99% control; and A represents a control of greater than 99%, i.e. no detectable colony growth.
(§2) Alternatively, or in addition, the same assay was conducted at descending test concentrations with 5-fold dilutions typically down to 0.032 ppm though sometimes as low as 0.00026 ppm, and an EC50 (the concentration at which 50% control would be achieved) was determined. The results are provided in Table 1 in which G represents an EC50 above 20 ppm, F represents an EC50 of 1-20 ppm and E represents and EC50 less than 1 ppm.

Phytophthora cinnamomi = test: Amended agar assay (PDA), colony growth; design: key to % control Phytophthora spp. 20 ppm: D: no control detected at this concentration; C: up to 50% control; B: from 50 to 99% control; A: a control of greater than 99%, i.e. no detectable colony growth; conditions: for % control Phytophthora spp. 20 ppm / inhibition of growth at 20 ppm: 20 ppm in amended PDA, 18° C., reduction in colony growth vs control plate; for EC50 / inhibition of growth at 20 ppm: Phytophthora cinnamomi; for EC50: amended agar, 5-fold dilutions (cells without *), read-out: EC50 Phytophthora spp.; for inhibition of growth at 20 ppm: read-out: % control Phytophthora spp. 20 ppm
Procedure: as §1, §2

oomycete plant pathogens = test: Fungicidal activity testing, overall summary; conditions: summary statement on Table 1
Procedure: The activity of compounds of the invention was assessed by testing against certain oomycete plant pathogens and representative data are presented in Table 1.

Pythium ultimum [2] = test: Amended agar assay (PDA), colony growth; conditions: Globisporangium ultimum; read-out: % control Pythium ultimum 2 ppm

| SMILES | inhibition of growth at 20 ppm (Pythium ultimum [1]) | % control Phytophthora spp. 20 ppm (Phytophthora cinnamomi) | EC50 (Pythium ultimum [1]) | EC50 (Phytophthora cinnamomi) | control over the pathogens tested (oomycete plant pathogens) | inhibition of growth at 20 ppm (Phytophthora cinnamomi) | inhibition of growth at 2 ppm (Pythium ultimum [2]) | % control Pythium ultimum 20 ppm (Pythium ultimum [1]) |
| --- | --- | --- | --- | --- | --- | --- | --- | --- |
| COC(=O)c1cccc(CSc2nc3ccccc3n2-c2nnnn2C)n1 [Example 18] | < 50% | D |  |  |  |  |  |  |
| CC(=O)Nc1nc(CSc2nc3ccccc3n2-c2nnnn2C)cs1 [Example 11] |  |  | < 1 µg/mL | < 1 µg/mL | good to excellent control |  |  |  |
| Cn1nnnc1-n1c(SCc2csc(NC(=O)OC(C)(C)C)n2)nc2ccc(Br)cc21 [Example 53] |  |  | < 1 µg/mL | < 1 µg/mL | good to excellent control |  |  |  |
| CNc1nc(CSc2nc3ccccc3n2-c2nnnn2C)cs1 [Example 17] | > 99% |  | < 1 µg/mL | < 1 µg/mL | good to excellent control | > 99% |  |  |
| Cn1nnnc1-n1c(SCc2cccc(N)n2)nc2ccccc21 [Example 26, 6-(((1-(1-Methyl-1H-tetrazol-5-yl)-1H-benzo[d]imidazol-2-yl)thio)methyl)pyridin-2-amine] | > 99% |  |  |  | good to excellent control | > 99% |  |  |
| Cn1nnnc1-n1c(SCc2cccc(NC(=O)C(F)(F)Oc3ccccc3)n2)nc2ccc(F)cc21 [Example 8] |  |  | < 1 µg/mL | < 1 µg/mL | good to excellent control |  | 50 to 99% |  |
| Cn1nnnc1-n1c(SCc2csc(NC(=O)OC(C)(C)C)n2)nc2ccccc21 [Example 23] |  |  | < 1 µg/mL | < 1 µg/mL | good to excellent control |  |  |  |
| CC(=O)Nc1cccc(CSc2nc3ccccc3n2-c2nnnn2C)n1 [Example 27, N-(6-(((1-(1-Methyl-1H-tetrazol-5-yl)-1H-benzo[d]imidazol-2-yl)thio)methyl)pyridin-2-yl)acetamide] | > 99% |  |  |  | good to excellent control | 50 to 99% |  |  |
| Cc1cc(-n2c(SCc3ccccn3)nc3ccccc32)sn1 [Example 14] | < 50% |  |  |  |  | < 50% |  |  |
| Cn1nnnc1-n1c(SCc2csc(NC(=O)C(F)(F)Oc3ccccc3)n2)nc2ccccc21 [Example 22] |  |  | < 1 µg/mL | < 1 µg/mL | good to excellent control |  |  |  |
| Cn1nccc1-n1c(SCc2ccccn2)nc2ccccc21 [Example 5] | < 50% |  |  |  |  | < 50% |  |  |
| Cn1ccnc1-n1c(SCc2ccccn2)nc2ccccc21 [Example 49] | > 99% |  | 1 to 20 µg/mL (≈ 3.11 to 62.2 µM) | 1 to 20 µg/mL (≈ 3.11 to 62.2 µM) | good to excellent control | 50 to 99% |  |  |
| Cn1nnnc1-n1c(SCc2cc3ccccc3cn2)nc2ccccc21 [Example 19] | 50 to 99% |  |  |  |  | 50 to 99% |  |  |
| Cn1nnnc1-n1c(SCc2cscn2)nc2ccccc21 [Example 12] |  |  | < 1 µg/mL | < 1 µg/mL | good to excellent control |  |  |  |
| c1ccc(CSc2nc3ccccc3n2-c2ccccn2)nc1 [Compound 32] |  | D |  |  |  |  |  | D |
| O=C(Nc1cccc(CSc2nc3ccccc3n2-c2ccccn2)n1)C(F)(F)Oc1ccccc1 [Compound 33] |  | D | > 20 µg/mL | > 20 µg/mL |  |  |  | D |
| COC(=O)c1cccc(CSc2nc3ccccc3n2-c2ncccc2C)n1 [Example 46] |  |  |  |  |  | < 50% |  | D |
| Cc1cccc(CSc2nc3ccccc3n2-c2nnnn2C)n1 [Example 13] | < 50% | D | > 20 µg/mL | > 20 µg/mL |  |  |  |  |
| Cn1nnnc1-n1c(SCc2cnc(Cl)s2)nc2ccccc21 [Compound 30] |  | D | > 20 µg/mL | > 20 µg/mL |  |  |  | D |
| Cn1nnnc1-n1c(SCC(=O)N2CCCC2)nc2ccccc21 [Example 25] |  |  | < 1 µg/mL | < 1 µg/mL | good to excellent control |  | 50 to 99% |  |

| SMILES | inhibition of growth at 20 ppm (Pythium ultimum [1]) | % control Phytophthora spp. 20 ppm (Phytophthora cinnamomi) | EC50 (Pythium ultimum [1]) | EC50 (Phytophthora cinnamomi) | control over the pathogens tested (oomycete plant pathogens) | inhibition of growth at 20 ppm (Phytophthora cinnamomi) | inhibition of growth at 2 ppm (Pythium ultimum [2]) | % control Pythium ultimum 20 ppm (Pythium ultimum [1]) |
| --- | --- | --- | --- | --- | --- | --- | --- | --- |
| c1ccc(CSc2nc3ccccc3n2-c2ncon2)nc1 [Compound 31] | < 50% |  | > 20 µg/mL | > 20 µg/mL |  |  |  |  |
| Cn1nnnc1-n1c(SCc2ccccn2)nc2ccc(F)cc21 [Example 7] |  |  | < 1 µg/mL | < 1 µg/mL | good to excellent control |  |  |  |
| Cc1cccnc1-n1c(SCc2ccccn2)nc2ccccc21 [Example 10] | 50 to 99% |  |  |  |  | < 50% |  |  |
| Cn1nnnc1-n1c(SCc2ccccn2)nc2ccc(Br)cc21 [Example 52] | 50 to 99% |  | 1 to 20 µg/mL (≈ 2.49 to 49.7 µM) | < 1 µg/mL | good to excellent control | 50 to 99% |  |  |
| Cn1nnnc1-n1c(SCc2csc(N)n2)nc2ccccc21 [Example 3] | > 99% |  |  |  | good to excellent control | > 99% |  |  |
| Cn1nnnc1-n1c(SCc2cccc(NC(=O)OC(C)(C)C)n2)nc2ccccc21 [Example 9] |  |  | < 1 µg/mL | < 1 µg/mL | good to excellent control |  |  |  |
| Cn1nnnc1-n1c(SCc2cccc(NC(=O)C(F)(F)Oc3ccccc3)n2)nc2ccccc21 [Example 1, 2,2-Difluoro-N-(6-(((1-(1-methyl-1H-tetrazol-5-yl)-1H-benzo[d]imidazol-2-yl)thio)methyl)pyridin-2-yl)-2-phenoxyacetamide] | > 99% |  | < 1 µg/mL | < 1 µg/mL | good to excellent control | > 99% |  |  |
| Cn1nnnc1-n1c(SCc2cccc(C(=O)O)n2)nc2ccccc21 [Compound 29] |  |  |  |  |  | < 50% |  | D |
| COC(=O)CSc1nc2ccccc2n1-c1nnnn1C [Example 24] | < 50% |  |  |  |  | 50 to 99% |  |  |
| Cn1nnnc1-n1c(SCc2ccccn2)nc2c(F)cc(F)cc21 [Example 21] | > 99% |  | < 1 µg/mL | < 1 µg/mL | good to excellent control | > 99% |  |  |
| Cc1cccnc1-n1c(SCc2cccc(NCC(F)(F)Oc3ccccc3)n2)nc2ccccc21 [Example 4] |  |  | 1 to 20 µg/mL (≈ 1.99 to 39.7 µM) | 1 to 20 µg/mL (≈ 1.99 to 39.7 µM) |  |  |  |  |
| Cn1nnnc1-n1c(SCc2ccccn2)nc2ccccc21 [Example 2] | > 99% |  | 1 to 20 µg/mL (≈ 3.09 to 61.8 µM) | < 1 µg/mL | good to excellent control | 50 to 99% | > 99% |  |
| Cc1nccnc1-n1c(SCc2ccccn2)nc2ccccc21 [Example 20] | < 50% | D | > 20 µg/mL | > 20 µg/mL |  |  |  |  |
| Cc1nc(CSc2nc3ccccc3n2-c2nnnn2C)cs1 [Example 16] | > 99% |  | 1 to 20 µg/mL (≈ 2.91 to 58.2 µM) | 1 to 20 µg/mL (≈ 2.91 to 58.2 µM) | good to excellent control | 50 to 99% |  |  |
| c1ccc(CSc2nc3ccccc3n2-c2ccon2)nc1 [Example 15] | < 50% | D | > 20 µg/mL | > 20 µg/mL |  |  |  |  |
| CCOC(=O)Nc1cccc(CSc2nc3ccccc3n2-c2nnnn2C)n1 [Example 28, Ethyl (6-(((1-(1-methyl-1H-tetrazol-5-yl)-1H-benzo[d]imidazol-2-yl)thio)methyl)pyridin-2-yl)carbamate] |  |  | < 1 µg/mL | < 1 µg/mL | good to excellent control |  |  |  |
| Cn1ccnc1-n1c(SCc2cccc(NC(=O)C(F)(F)Oc3ccccc3)n2)nc2ccccc21 [Example 50] |  |  | < 1 µg/mL | < 1 µg/mL | good to excellent control |  |  |  |
| O=C(Nc1cccc(CSc2nc3ccccc3n2-c2ncncc2Cl)n1)C(F)(F)Oc1ccccc1 [Example 45] |  |  | < 1 µg/mL | < 1 µg/mL | good to excellent control |  |  |  |
| Cc1noc(-n2c(SCc3ccccn3)nc3ccccc32)c1C [Example 6] | 50 to 99% |  |  |  |  | 50 to 99% |  |  |

Reference: patent US11224224B2, “Thiobenzoimidazole as fungicides” (REDAG CROP PROTECTION LTD, priority 2017, dated 2022)
